How the values were obtained:
human fibroblasts = assay: Direct conversion of human fibroblasts to brown adipocytes in serum-free medium SFBAM, efficiency judged comprehensively; type: cell-based; conditions: conclusion from removal experiments
Protocol: The above human fibroblasts were seeded in 35 mm dishes coated with gelatin (Cat #: 190-15805, manufactured by FUJIFILM Wako Pure Chemical Co.) at 5×10^4, and cultured in DMEM medium (Cat #: 11965092; manufactured by Gibco) supplemented with 10% fetal bovine serum (FBS), 100 U/mL penicillin, 100 μg/mL streptomycin until 80% to 90% confluency at 37° C., 5% CO2.
Hereinafter, this is referred to as serum-free brown adipocyte-inducing medium “SFBAM”.
After the human fibroblasts reached 80% to 90% confluency, the dish medium was replaced with the above SFBAM and the human fibroblasts were cultured in SFBAM for 3 weeks. The medium was changed every 3 days.
The more the number of + marks, the higher the conversion efficiency. […] The mark − indicates no conversion to brown adipocytes.

[1] = system: β-adrenergic receptor signal pathway in brown adipocytes; assay: Heat production capacity: Ucp1 mRNA after isoproterenol treatment of induced brown adipocytes; type: cell-based, human; conditions: 6 hours treatment of cells induced with Example 3 (3 weeks SFBAM + 1 week SFBAMaM); compared with control treated with H2O; FIG. 9
Protocol: To quantify gene expression, total RNAs were extracted from fibroblasts treated with the respective compounds using FastGene (registered trademark) RNA basic kit (manufactured by Nippon Genetics Co., Ltd.). Fibroblasts were cultured in parallel using SFBAM as a control, and the total RNAs were extracted from the brown adipocytes induced with compounds and the control cells. After performing reverse-transcription with ReverTraAce (registered trademark) PCR RT Master Mix with gDNA Remover (manufactured by Toyobo Co., Ltd.), the real-time PCR analysis was performed by Power SYBR Green PCR Master Mix (Thermo Fisher Scientific). Three reactions were carried out per level under the following conditions: 40 cycles of reactions at 95° C. for 10 minutes, at 95° C. for 15 seconds, and at 60° C. for 60 seconds, in order. All results were normalized to the quantity of Tbp mRNA.
Regarding the cells, Ucp1 mRNA was quantified in the case after treatment with isoproterenol (β-adrenergic receptor agonist) for 6 hours and in the case after treatment with H2O, which is the solvent.

Row | SMILES | conversion efficiency attributed to the single compound (human fibroblasts) | Ucp1 mRNA increase after treatment [1]
1 | CN(CCOc1ccc(CC2SC(=O)NC2=O)cc1)c1ccccn1 (stereo not drawn) [rosiglitazone, Rosiglitazone] | high conversion efficiency | –
2 | CC(C)NCC(O)c1ccc(O)c(O)c1 (stereo not drawn) [isoproterenol, Isoproterenol] | – | up to 3.1 fold
3 | C=C[C@@]1(C)CC(=O)[C@]2(O)[C@@]3(C)[C@@H](O)CCC(C)(C)[C@@H]3[C@H](O)[C@H](OC(C)=O)[C@@]2(C)O1 [forskolin, Forskolin] | followed by a high conversion efficiency | –

From patent US20230059404A1, “Method for Producing Brown Adipocytes” (Kataoka Corporation, priority 2019, published 2023)
